Data on 25 compounds can be found in US7244727B2, “Fused bicyclic nitrogen-containing heterocycles” (Japan Tobacco Inc., priority 2002, dated 2007).

In general, IC50 refers to the concentration that inhibits the measured activity by half. By melting point is commonly meant the temperature of the solid-liquid transition.

For one data set, the target named is T1, human DGAT1 (Homo sapiens, UniProt O75907).
T1 construct: made in house; host or cells: insect cells (sf9, sf21 or High Five) infected with baculovirus; total cell membranes
T1 sequence (O75907 1-488): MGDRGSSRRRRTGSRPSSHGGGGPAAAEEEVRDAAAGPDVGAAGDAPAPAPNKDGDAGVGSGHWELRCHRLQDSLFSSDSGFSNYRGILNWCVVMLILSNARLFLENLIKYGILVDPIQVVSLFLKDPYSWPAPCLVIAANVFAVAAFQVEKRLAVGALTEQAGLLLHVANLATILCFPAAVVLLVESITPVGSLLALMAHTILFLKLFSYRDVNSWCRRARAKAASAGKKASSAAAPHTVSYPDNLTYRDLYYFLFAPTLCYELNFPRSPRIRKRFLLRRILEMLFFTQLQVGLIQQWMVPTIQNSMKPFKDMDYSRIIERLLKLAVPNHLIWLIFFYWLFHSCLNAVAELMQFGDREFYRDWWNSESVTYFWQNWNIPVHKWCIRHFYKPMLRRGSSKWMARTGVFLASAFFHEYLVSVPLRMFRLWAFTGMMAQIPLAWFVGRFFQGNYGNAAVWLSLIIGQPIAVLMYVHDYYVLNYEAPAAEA
The experiment in a line: DGAT Scintillation Proximity Assay (SPA) with membranes of insect cells expressing human flagtag DGAT1. Particulars: read-out: hDGAT1 IC50. In kind it is biochemical. How it is done:
In such an assay human DGAT1 is cloned from a human liver cDNA library. PCR is used to add a restriction site and flag epitope at the most 5′ end and a restriction site at the 3′ end of the sequence. Thereafter, human flagtag (FT) DGAT1 baculovirus may be generated using a Bac-to-Bac Baculovirus Expression System® (Invitrogen). Insect cells (e.g., sf9, sf2 1, or High Five) are infected for 24 to 72 h and collected by centrifugation. Cell pellets are resuspended in homogenization buffer and lysed using a homogenization device, such as a Microfluidizer. Total cell membranes are collected by ultracentrifugation at 45,000 rpm for 1 h.
A small aliquot (0.2 μg/well) of membrane is incubated with 10 μM compound or mercuric chloride (as positive control for inhibition) in the presence of enzyme substrate, dioleoyl glycerol (200 μM) in 384 well plates, final volume 50 gL per well. […] The reaction is stopped by adding Wheat Germ Agglutinin (WGA) SPA beads (0.2 mg) in mercuric chloride. Cell membranes are allowed to couple to the beads overnight. The signal can be measured using, for example, a Chemiluminescence Image Plate Reader (CLIPR) or TopCount device.

`CCc1ccc(C2=Nc3c(N)ncnc3OC2)cc1` [Example 1-19]: the melting point lay within 191 to 193 °C. Further, the IC50 at human DGAT1 was more than 100 nM.
`CCCc1ccc(C2=Nc3c(N)ncnc3OC2)cc1` [Example 1-20] showed a melting point of 189 to 192 °C. Besides, the IC50 at human DGAT1 was more than 100 nM.
On the same counts, the results for `CCCCc1ccc(C2=Nc3c(N)ncnc3OC2)cc1` [Example 1-21] are 183 to 186 °C and more than 100 nM.
On the same counts, the results for `Nc1ncnc2c1N=C(C1CCCCC1)CO2` [Example 1-22] are 142 °C and more than 100 nM.
In the same order, the values of `Nc1ncnc2c1N=C(c1ccc(OC(F)(F)F)cc1)CO2` [Example 1-23] are 209 to 212 °C and more than 100 nM.
`Nc1ncnc2c1N=C(c1ccc(C3CCCCC3)cc1)CO2` [Example 1-25] yielded a melting point of 219 to 221 °C. Besides, the IC50 at human DGAT1 was more than 100 nM.
On the same counts, the results for `Nc1nc(N)c2c(n1)OCC(c1ccc(Br)cc1)=N2` [Example 1-26] are more than 220 °C and more than 100 nM.
On the same counts, the results for `Nc1ncnc2c1N=C(c1ccc(Cl)c(Cl)c1)CO2` [Example 1-27] are more than 220 °C and more than 100 nM.
In the same order, the values of `Nc1ncnc2c1N=C(c1ccc(Cl)cc1Cl)CO2` [Example 1-28] are 218 to 220 °C and more than 100 nM.
Take `Nc1nc(O)nc2c1N=C(c1ccc(Br)cc1)CO2` [Example 1-29]: the melting point is more than 220 °C. Moreover, the IC50 at human DGAT1 was more than 100 nM.
On the same counts, the results for `CN(C)c1nc(N)c2c(n1)OCC(c1ccc(Br)cc1)=N2` [Example 1-30] are more than 220 °C and more than 100 nM.
On the same counts, the results for `Nc1ncnc2c1N=C(c1c(F)c(F)c(F)c(F)c1F)CO2` [Example 1-31] are 190 to 192 °C and more than 100 nM.
In the same order, the values of `Cc1nc(N)c2c(n1)OCC(c1ccc(Br)cc1)N2` (centres unmarked) [Example 1-34] are 232 to 233 °C and more than 100 nM.
In the case of `O=c1[nH]c2ncnc3c2n1C(c1ccc(Br)cc1)CO3` (centres unmarked) [Example 1-35], the melting point is more than 220 °C. Also, the IC50 at human DGAT1 is more than 100 nM.
On the same counts, the results for `Nc1ncnc2c1NC(c1ccc(Cl)c(Cl)c1)CO2` (centres unmarked) [Example 1-36] are 198 to 200 °C and more than 100 nM.
In the same order, the values of `Nc1ncnc2c1NC(c1ccc(Cl)cc1Cl)CO2` (centres unmarked) [Example 1-37] are more than 220 °C and more than 100 nM.
In the same order, the values of `CC1(C)Oc2ncnc(N)c2N=C1c1ccc([C@H]2CC[C@H](CCC(N)=O)CC2)cc1` [Example 2-5] are 244 to 246 °C and 10 to 100 nM.
The compound `CC1(C)Oc2ncnc(N)c2NC1c1ccc([C@H]2CC[C@H](CCC(=O)O)CC2)cc1` (some centres unmarked) [Example 2-6] had a melting point of more than 250 °C. Moreover, the IC50 on human DGAT1 fell in the range of 10 to 100 nM.
For the compound `CC1(C)Oc2ncnc(N)c2NC1c1ccccc1` (centres unmarked) [Example 2-8], the melting point was more than 220 °C. In addition, the IC50 on human DGAT1 was more than 100 nM.
On the same counts, the results for `CC1(C)Oc2ncnc3[nH]c(=O)n(c23)C1c1ccc(Br)cc1` (centres unmarked) [Example 2-11] are more than 220 °C and more than 100 nM.
On the same counts, the results for `Nc1ncnc2c1N=C(c1ccc(Br)cc1)C1(CCCC1)O2` [Example 2-13] are 184 to 186 °C and more than 100 nM.
On the same counts, the results for `Nc1ncnc2c1NC(c1ccc(Br)cc1)C1(CCCC1)O2` (centres unmarked) [Example 2-14] are 226 to 233 °C and more than 100 nM.
Compound `CC1(C)Oc2ncnc(N)c2NC1c1ccc(Cl)cc1` (centres unmarked) [Example 2-19] came in with a melting point of more than 230 °C. At human DGAT1, the IC50 is more than 100 nM.
On the same counts, the results for `Cc1ccc(C2Nc3c(N)ncnc3OC2(C)C)cc1` (centres unmarked) [Example 2-20] are more than 230 °C and more than 100 nM.
`CC1(C)Oc2ncnc(N)c2NC1c1ccc(F)cc1` (centres unmarked) [Example 2-21] showed a melting point of more than 230 °C. Moreover, at human DGAT1, the IC50 is more than 100 nM.
